Laboratory results published in patent US20230133672A1, “FUSION POLYPEPTIDE COMPRISING GDF15 AND POLYPEPTIDE REGION CAPABLE OF O-GLYCOSYLATION” (LG CHEM, LTD., priority 2019, published 2023).

Key:
[1] = Single administration: body weight change in DIO mice; format: in vivo, Mouse, C57BL/6J-DIO; details: for Body Weight (Group, % of initial): daily s.c. injection, mean
Description: (§1) The pharmacological effect of the fusion polypeptides produced and purified in Example 1 above was tested in mice (C57BL/6J, 6-week-old, male, 100 mice; Raonbio).
(§2) In the present example, DI0 mouse model (Mouse, C57BL/6J-DIO, male, 100 mice, 14-week-old (obesity feed feeding for 8 weeks)) in which obesity was induced by feeding a high-fat diet into the C57BL/6J mice for 8 weeks was used.
(§3) The administration of the test substances HT-ID1-GDF15, HT-ID2-GDF15, and HT-ID3-GDF15 and the control substance Semaglutide (Bachem) was conducted from the next day after group separation, and the administration time was performed at 9 AM every day. Subcutaneous administration was conducted for all the control substance and test substances. For the administration route of the control substance and test substances, subcutaneous administration was selected depending on the clinically scheduled administration route.
(§4) For all the control substance and test substances, the amount of the administration solution was set to 5 mL/kg and the administration liquid by individual was calculated on the basis of the recently measured body weight and it was administered by subcutaneous injection once on the start day of the test using a disposable syringe (1 mL). The test substances were administered only once. For comparison, the control group in which the control substance Semaglutide was administered was prepared, and the comparison group in which Semaglutide was administered was administered once a day, and all the administration was progressed from 9 AM.
As for the observation, measurement and test schedule for the test groups, the administration start date was set to Day 0, and 7 days from the administration start date were set to one week of administration.
(§5) The body weight of each mouse was measured on the day of the start of administration of the test substances (before administration), and thereafter, the body weight was measured every day (measured up to 9 days), and the amount of the administration solution of the test substances was determined on the basis of the most recently measured body weight.
(§6) All the experimental results obtained in the present example were expressed as mean±standard error and tested using Prism5 (version 5.01). One-way analysis of variance (ANOVA) was performed on all data, and when significance was observed, Dunnett's test was performed to find out the test groups with a significant difference from the control group (significance level: two-sided 5% and 1%, 0.1%).

[2] = Single administration: feed intake in DIO mice; format: in vivo, Mouse, C57BL/6J-DIO; design: unit not given here
Description: as §1, §2, §3, §4
(§7) In addition, after administering the test substances into mice, the daily feed intake was measured, and the feeding amount was measured using an electronic scale for each breeding box, and the remaining amount was measured to calculate the daily feed intake. In case of an individual that gnawed heavily on heed, it was excluded from the measurement.
as §6

[3] = Repeated administration: body weight change in DIO mice; format: in vivo, Mouse, C57BL/6J-DIO
Description: as §5, with “([…]),” for “(measured up to 9 days),”
as §6
(§8) Except for the administration dose, animal number and administration cycle, most of the test processes were the same as in Example 2.1.1 above.
(§9) The test substances were administered twice a week (Days 0, 4, 7, 11, 14, 18, 21, 25) for a total of 8 times. For comparison, the control group in which the control substance Semaglutide was administered every day was prepared, and the comparison group in which Semaglutide was administered every day was administered once a day daily, and all the administration was progressed from 9 AM.

[4] = Repeated administration: feed intake in DIO mice; format: in vivo, Mouse, C57BL/6J-DIO; design: unit not given here
Description: as §7, §6, §8, §9

[5] = Pharmacokinetic test, subcutaneous administration to SD rats (serum ELISA, Human GDF15 Immunoassay); format: in vivo; details: 2 mg/kg subcutaneous
Description: For evaluation of pharmacokinetic characteristics when each fusion polypeptide was subcutaneously administered to rats, the fusion polypeptides HT-ID1-GDF15, HT-ID2-GDF15 and HT-ID3-GDF15 were subcutaneously administered into SD rats (Koatech, male, 7-week-old, about 250 g; n=3 each; test group) in an amount of 2 mg/kg, respectively, and about 200 μl of blood was collected through the caudal vein at a predetermined time. The blood collection time was performed before administration, and 1, 2, 4, 8, 24, 48, 72, 96, 168, 240 and 336 hours after administration. As the control group for comparison of pharmacokinetic characteristics, GDF15 (R&D Systems) was subcutaneously administered in an amount of 2 mg/kg by the same method to prepare a GDF15 administration group.
After administering into SD Rats as above, blood collected by time-point was centrifuged to obtain serum, and ELISA was performed using Human GDF15 Immunoassay (SGD150, R&D Systems), and the concentration in the serum was measured depending on the time of each polypeptide.

For Semaglutide [reference compound], the “body weight loss effect” value ([1]; 3 nmol/kg daily s.c. administration) was “body weight loss effect was continuously shown from Day 1 after administration”, the “Body Weight (Group, % of initial)” value ([1]; Day 0, 3 nmol/kg) was 100 % of initial and the “Body Weight (Group, % of initial)” value ([1]; Day 1, 3 nmol/kg) was 94 % of initial. The “Body Weight (Group, % of initial)” value ([1]; Day 2, 3 nmol/kg) was 91 % of initial, the “Body Weight (Group, % of initial)” value ([1]; Day 3, 3 nmol/kg) was 90 % of initial and the “Body Weight (Group, % of initial)” value ([1]; Day 4, 3 nmol/kg) was 87 % of initial. For the same substance, the “Body Weight (Group, % of initial)” value ([1]; Day 5, 3 nmol/kg) was 87 % of initial, the “Body Weight (Group, % of initial)” value ([1]; Day 6, 3 nmol/kg) was 85 % of initial and the “Body Weight (Group, % of initial)” value ([1]; Day 7, 3 nmol/kg) was 86 % of initial. For the same substance, the “Body Weight (Group, % of initial)” value ([1]; Day 8, 3 nmol/kg) was 83 % of initial, the “Body Weight (Group, % of initial)” value ([1]; Day 9, 3 nmol/kg) was 85 % of initial and the “Feed intake, Mean” value ([2]; Day 0, 3 nmol/kg Daily Inj.) was 3.7. For the same substance, the “Feed intake, Mean” value ([2]; Day 1, 3 nmol/kg Daily Inj.) was 2.1, the “Feed intake, Mean” value ([2]; Day 2, 3 nmol/kg Daily Inj.) was 3.3 and the “Feed intake, Mean” value ([2]; Day 3, 3 nmol/kg Daily Inj.) was 2.8. For the same substance, the “Feed intake, Mean” value ([2]; Day 4, 3 nmol/kg Daily Inj.) was 2.3, the “Feed intake, Mean” value ([2]; Day 5, 3 nmol/kg Daily Inj.) was 2.9 and the “Feed intake, Mean” value ([2]; Day 6, 3 nmol/kg Daily Inj.) was 2.7. For the same substance, the “Feed intake, Mean” value ([2]; Day 7, 3 nmol/kg Daily Inj.) was 3.2, the “Feed intake, Mean” value ([2]; Day 8, 3 nmol/kg Daily Inj.) was 2.4 and the “Feed intake, Mean” value ([2]; Day 9, 3 nmol/kg Daily Inj.) was 3.7. For the same substance, the “Body Weight, Mean” value ([3]; Day 0, 3 nmol/kg once a day) was 100.0 % of initial, the “Body Weight, Mean” value ([3]; Day 1, 3 nmol/kg once a day) was 93.9 % of initial and the “Body Weight, Mean” value ([3]; Day 2, 3 nmol/kg once a day) was 92.6 % of initial. The “Body Weight, Mean” value ([3]; Day 3, 3 nmol/kg once a day) was 90.4 % of initial, the “Body Weight, Mean” value ([3]; Day 4, 3 nmol/kg once a day) was 88.4 % of initial and the “Body Weight, Mean” value ([3]; Day 5, 3 nmol/kg once a day) was 66.2 % of initial. The “Body Weight, Mean” value ([3]; Day 6, 3 nmol/kg once a day) was 64.1 % of initial, the “Body Weight, Mean” value ([3]; Day 7, 3 nmol/kg once a day) was 82.6 % of initial and the “Body Weight, Mean” value ([3]; Day 8, 3 nmol/kg once a day) was 61.9 % of initial. For the same substance, the “Body Weight, Mean” value ([3]; Day 9, 3 nmol/kg once a day) was 80.7 % of initial, the “Body Weight, Mean” value ([3]; Day 10, 3 nmol/kg once a day) was 80.3 % of initial and the “Body Weight, Mean” value ([3]; Day 11, 3 nmol/kg once a day) was 80.3 % of initial. For the same substance, the “Body Weight, Mean” value ([3]; Day 12, 3 nmol/kg once a day) was 79.1 % of initial, the “Body Weight, Mean” value ([3]; Day 13, 3 nmol/kg once a day) was 76.8 % of initial and the “Body Weight, Mean” value ([3]; Day 14, 3 nmol/kg once a day) was 76.7 % of initial. For the same substance, the “Body Weight, Mean” value ([3]; Day 15, 3 nmol/kg once a day) was 78.1 % of initial, the “Body Weight, Mean” value ([3]; Day 16, 3 nmol/kg once a day) was 78.3 % of initial and the “Body Weight, Mean” value ([3]; Day 17, 3 nmol/kg once a day) was 77.2 % of initial. For the same substance, the “Body Weight, Mean” value ([3]; Day 18, 3 nmol/kg once a day) was 76.7 % of initial, the “Body Weight, Mean” value ([3]; Day 19, 3 nmol/kg once a day) was 77.1 % of initial and the “Body Weight, Mean” value ([3]; Day 20, 3 nmol/kg once a day) was 76.1 % of initial. For the same substance, the “Body Weight, Mean” value ([3]; Day 21, 3 nmol/kg once a day) was 76.8 % of initial, the “Body Weight, Mean” value ([3]; Day 22, 3 nmol/kg once a day) was 75.9 % of initial and the “Body Weight, Mean” value ([3]; Day 23, 3 nmol/kg once a day) was 75.6 % of initial. The “Body Weight, Mean” value ([3]; Day 24, 3 nmol/kg once a day) was 76.0 % of initial, the “Body Weight, Mean” value ([3]; Day 25, 3 nmol/kg once a day) was 76.3 % of initial and the “Body Weight, Mean” value ([3]; Day 26, 3 nmol/kg once a day) was 76.5 % of initial. For the same substance, the “Body Weight, Mean” value ([3]; Day 27, 3 nmol/kg once a day) was 76.2 % of initial, the “Body Weight, Mean” value ([3]; Day 28, 3 nmol/kg once a day) was 75.7 % of initial and the “Feed intake, Mean” value ([4]; Day 1, 3 nmol/kg once a day) was 2.9. For the same substance, the “Feed intake, Mean” value ([4]; Day 2, 3 nmol/kg once a day) was 0.7, the “Feed intake, Mean” value ([4]; Day 3, 3 nmol/kg once a day) was 1.3 and the “Feed intake, Mean” value ([4]; Day 4, 3 nmol/kg once a day) was 1.4. The “Feed intake, Mean” value ([4]; Day 5, 3 nmol/kg once a day) was 1.7, the “Feed intake, Mean” value ([4]; Day 6, 3 nmol/kg once a day) was 1.5 and the “Feed intake, Mean” value ([4]; Day 7, 3 nmol/kg once a day) was 1.6. The “Feed intake, Mean” value ([4]; Day 8, 3 nmol/kg once a day) was 1.9, the “Feed intake, Mean” value ([4]; Day 9, 3 nmol/kg once a day) was 2.0 and the “Feed intake, Mean” value ([4]; Day 10, 3 nmol/kg once a day) was 2.3. The “Feed intake, Mean” value ([4]; Day 11, 3 nmol/kg once a day) was 2.2, the “Feed intake, Mean” value ([4]; Day 12, 3 nmol/kg once a day) was 3.2 and the “Feed intake, Mean” value ([4]; Day 13, 3 nmol/kg once a day) was 2.2. For the same substance, the “Feed intake, Mean” value ([4]; Day 14, 3 nmol/kg once a day) was 2.5, the “Feed intake, Mean” value ([4]; Day 15, 3 nmol/kg once a day) was 2.5 and the “Feed intake, Mean” value ([4]; Day 16, 3 nmol/kg once a day) was 2.2. The “Feed intake, Mean” value ([4]; Day 17, 3 nmol/kg once a day) was 2.4, the “Feed intake, Mean” value ([4]; Day 18, 3 nmol/kg once a day) was 2.2 and the “Feed intake, Mean” value ([4]; Day 19, 3 nmol/kg once a day) was 2.6. For the same substance, the “Feed intake, Mean” value ([4]; Day 20, 3 nmol/kg once a day) was 2.6, the “Feed intake, Mean” value ([4]; Day 21, 3 nmol/kg once a day) was 2.5 and the “Feed intake, Mean” value ([4]; Day 22, 3 nmol/kg once a day) was 2.9. For the same substance, the “Feed intake, Mean” value ([4]; Day 23, 3 nmol/kg once a day) was 2.0, the “Feed intake, Mean” value ([4]; Day 24, 3 nmol/kg once a day) was 2.4 and the “Feed intake, Mean” value ([4]; Day 25, 3 nmol/kg once a day) was 2.9. The “Feed intake, Mean” value ([4]; Day 26, 3 nmol/kg once a day) was 2.4, the “Feed intake, Mean” value ([4]; Day 27, 3 nmol/kg once a day) was 2.4 and the “Feed intake, Mean” value ([4]; Day 28, 3 nmol/kg once a day) was 2.7.

For “rhGDF15: GDF15 (R&D Systems), not fused, control group for comparison of pharmacokinetic characteristics”, the half-life [5] was 19 h, the “AUCextp (%) [(AUCinf − AUClast)/AUCinf]*100” value ([5]; serum) was 0.463% and the AUClast ([5]; serum) was 4860 ng·h/mL. The “Cmax (maximum concentration in blood)” value ([5]; serum) was 443 ng/mL, the “Tmax (reaching time to maximum concentration in blood)” value ([5]; serum) was 1 h and the “t1/2 (loss half-life)” value ([5]; serum) was 19.0 h. The AUCinf ([5]; serum, extrapolated to infinity) was 4880 ng·h/mL.
